# From PubChem BioAssay AID1259411 (Chemical Carcinogenesis Research Information System (CCRIS), 2018)
# Active and inactive are the calls of the source. How the calls were made is not given here.
# System: rodent carcinogenicity bioassays, tumor incidence
# Test: CCRIS carcinogenicity studies
# Procedure, shortened: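 Archive of carcinogenicity, mutagenicity, tumor promotion and tumor inhibition results drawn from journals, NCI reports and other sources, expert-reviewed; covers 1985-2011 and is no longer updated.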
smiles,measurement,setting,value
CC(C)C(C(=O)OC(C#N)c1cccc(Oc2ccccc2)c1)c1ccc(Cl)cc1 (centres undefined),carcinogen call,"Species: MOUSE, Strain/Sex: B6C3F1/FEMALE, Route: ORAL, Dose: 0, 10, 50, 250, 1250 PPM IN THE DIET FOR 2 YR (STUDY DURATION: 2 YR), Dose: 0, 10, 50, 250, 1250 PPM IN THE DIET FOR 2 YR (STUDY DURATION: 2 YR)",inactive; negative
same,carcinogen call,"Species: MOUSE, Strain/Sex: B6C3F1/MALE, Route: ORAL, Dose: 0, 10, 50, 250, 1250 PPM IN THE DIET FOR 2 YR (STUDY DURATION: 2 YR), Dose: 0, 10, 50, 250, 1250 PPM IN THE DIET FOR 2 YR (STUDY DURATION: 2 YR)",inactive; negative
same,carcinogen call,"Species: MOUSE, Strain/Sex: C57BL/FEMALE, Route: INTRAGASTRIC, Dose: 0, 40, 80 MG/KG IN ARACHIS OIL 5/WK FOR 104 WK (STUDY DURATION: 120 WK), Dose: 0, 40, 80 MG/KG IN ARACHIS OIL 5/WK FOR 104 WK (STUDY DURATION: 120 WK)",inactive; negative
same,carcinogen call,"Species: MOUSE, Strain/Sex: C57BL/MALE, Route: INTRAGASTRIC, Dose: 0, 40, 80 MG/KG IN ARACHIS OIL 5/WK FOR 104 WK (STUDY DURATION: 120 WK), Dose: 0, 40, 80 MG/KG IN ARACHIS OIL 5/WK FOR 104 WK (STUDY DURATION: 120 WK)",inactive; negative
same,carcinogen call,"Species: RAT, Strain/Sex: SPRAGUE-DAWLEY/MALE,FEMALE, Route: ORAL",inactive; negative
same,carcinogen call,"Species: Rat, Strain/Sex: Sprague-Dawley/Male and female (93/Experimental group and 183/Control group), Route: Oral, Dose: 0, 1, 5, 25, 250 ppm in diet for 2 yr, study duration 2 yr, Dose: 0, 1, 5, 25, 250 ppm in diet for 2 yr, study duration 2 yr",inactive; negative
CC(=O)O[C@]1(C(C)=O)CC[C@H]2[C@@H]3C=C(Cl)C4=CC(=O)[C@@H]5C[C@@H]5[C@]4(C)[C@H]3CC[C@@]21C,carcinogen call,"Species: MOUSE, Strain/Sex: C57BL/FEMALE, Route: ORAL, Dose: 0, 800 PPM IN DIET FOR 97 WK (STUDY DURATION: 97 WK), Tumor Site: Type of Lesion: LIVER: HEPATOCELLULAR ADENOMA, HEPATOCELLULAR CARCINOMA",active; positive
same,carcinogen call,"Species: MOUSE, Strain/Sex: C57BL/MALE, Route: ORAL, Dose: 0, 800 PPM IN DIET FOR 104 WK (STUDY DURATION: 104 WK), Tumor Site: Type of Lesion: LIVER: HEPATOCELLULAR ADENOMA, HEPATOCELLULAR CARCINOMA",active; positive
same,carcinogen call,"Species: RAT, Strain/Sex: WISTAR/MALE, Route: GAVAGE, Dose: 0, 50 MG/KG IN TAP WATER 1/D FOR 21 D (STUDY DURATION: 79 WK)",inactive; negative
Nc1ccccc1,carcinogen call,"Species: MOUSE, Strain/Sex: B6C3F1/FEMALE, Route: ORAL, Dose: 0, 0.6, 1.2% OF DIET, Dose: 0, 0.6, 1.2% OF DIET",inactive; negative
same,carcinogen call,"Species: MOUSE, Strain/Sex: B6C3F1/MALE, Route: INTRAPERITONEAL, Dose: 0, 0.15 UMOL/G ONCE IN SODIUM ACETATE BUFFER (STUDY DURATION: 10 MO)",inactive; negative
same,carcinogen call,"Species: MOUSE, Strain/Sex: B6C3F1/MALE, Route: ORAL, Dose: 0, 0.6, 1.2% OF DIET, Dose: 0, 0.6, 1.2% OF DIET",inactive; negative
same,carcinogen call,"Species: RAT, Strain/Sex: F344/FEMALE, Route: ORAL, Dose: 0, 0.3, 0.6% OF DIET, Dose: 0, 0.3, 0.6% OF DIET, Tumor Site: Type of Lesion: SPLEEN OR BODY CAVITIES (BOTH PLEURAL AND PERITONEAL): FIBROSARCOMA OR SARCOMA, NOS",active; positive
same,carcinogen call,"Species: RAT, Strain/Sex: F344/FEMALE, Route: ORAL, Dose: 0, 3000, 6000 PPM IN DIET FOR 103 WK (STUDY DURATION: 108 WK), Dose: 0, 3000, 6000 PPM IN DIET FOR 103 WK (STUDY DURATION: 108 WK), Tumor Site: Type of Lesion: SPLEEN OR PERITONEUM: SARCOMA",active; positive
same,carcinogen call,"Species: RAT, Strain/Sex: F344/MALE, Route: ORAL, Dose: 0, 0.3, 0.6% OF DIET, Dose: 0, 0.3, 0.6% OF DIET, Tumor Site: Type of Lesion: SPLEEN AND BODY CAVITIES (BOTH PLEURAL AND PERITONEAL): FIBROSARCOMA OR SARCOMA, NOS, HEMANGIOSARCOMA",active; positive
same,carcinogen call,"Species: RAT, Strain/Sex: F344/MALE, Route: ORAL, Dose: 0, 3000, 6000 PPM IN DIET FOR 103 WK (STUDY DURATION: 108 WK), Dose: 0, 3000, 6000 PPM IN DIET FOR 103 WK (STUDY DURATION: 108 WK), Tumor Site: Type of Lesion: SPLEEN OR PERITONEUM: SARCOMA",active; positive
C[C@H]1C(=O)O[C@@H]2CCN3CC=C(COC(=O)[C@](C)(O)[C@]1(C)O)[C@H]23,carcinogen call,"Species: RAT, Route: ORAL, Tumor Site: Type of Lesion: LIVER",active; positive
c1ccc2c(c1)ccc1nc3c(ccc4ccccc43)cc12,carcinogen call,"Species: MOUSE, Route: DERMAL, Tumor Site: Type of Lesion: INTEGUMENTARY SYSTEM (SKIN)",active; positive
same,carcinogen call,"Species: MOUSE, Route: SUBCUTANEOUS, Tumor Site: Type of Lesion: INJECTION SITE, LUNG",active; positive
same,carcinogen call,"Species: RAT, Strain/Sex: OSBORNE-MENDEL/FEMALE, Route: LUNG IMPLANT, Dose: 0, 0.1, 0.3, 1.0 MG IN BEESWAX/TRICAPRYLIN (STUDY DURATION: LIFETIME), Dose: 0, 0.1, 0.3, 1.0 MG IN BEESWAX/TRICAPRYLIN (STUDY DURATION: LIFETIME), Tumor Site: Type of Lesion: LUNG: EPIDERMOID CARCINOMA",active; positive
CCCCC/C=N/N(C)C=O,carcinogen call,"Species: MOUSE, Strain/Sex: SWISS/FEMALE, Route: GAVAGE, Dose: 0, 50, 100 UG/G/BW IN 0.01 ML OF PROPYLENE GLYCOL 1/WK FOR 52 WK (STUDY DURATION: 130 WK), Dose: 0, 50, 100 UG/G/BW IN 0.01 ML OF PROPYLENE GLYCOL 1/WK FOR 52 WK (STUDY DURATION: 130 WK), Tumor Site: Type of Lesion: LUNG: ADENOMA OR ADENOCARCINOMA, LIVER: HEPATOMA OR CARCINOMA",active; positive
same,carcinogen call,"Species: MOUSE, Strain/Sex: SWISS/MALE, Route: GAVAGE, Dose: 0, 50, 100 UG/G/BW IN 0.01 ML OF PROPYLENE GLYCOL 1/WK FOR 52 WK (STUDY DURATION: 130 WK), Dose: 0, 50, 100 UG/G/BW IN 0.01 ML OF PROPYLENE GLYCOL 1/WK FOR 52 WK (STUDY DURATION: 130 WK), Tumor Site: Type of Lesion: LUNG: ADENOMA AND ADENOCARCINOMA, PREPUTIAL GLAND: SQUAMOUS CELL PAPILLOMA OR SQUAMOUS CELL CARCINOMA OR ADENOMA",active; positive
CN(C)P(=O)(N(C)C)N(C)C,carcinogen call,"Species: RAT, Route: INHALATION, Tumor Site: Type of Lesion: NASAL CAVITY",active; positive
same,carcinogen call,"Species: RAT, Strain/Sex: STRAIN-CD/MALE,FEMALE, Route: INHALATION, Dose: 0, 10, 50, 100, 400, 4000 PPB FOR 6-24 MO (STUDY DURATION: 2 YR), Dose: 0, 10, 50, 100, 400, 4000 PPB FOR 6-24 MO (STUDY DURATION: 2 YR), Tumor Site: Type of Lesion: NASAL CAVITY: EPIDERMOID CARCINOMA",active; positive
same,carcinogen call,"Species: RAT, Strain/Sex: STRAIN-CD/MALE,FEMALE, Route: INHALATION, Dose: 0, 10, 50, 100, 400, 4000 PPB FOR 6-24 MO, STUDY DURATION: 24-25 MO, Dose: 0, 10, 50, 100, 400, 4000 PPB FOR 6-24 MO, STUDY DURATION: 24-25 MO, Tumor Site: Type of Lesion: NASAL CAVITY: SQUAMOUS CELL PAPILLOMA, EPIDERMOID CARCINOMA, NASAL CAVITY (ADENOID): SQUAMOUS CELL CARCINOMA",active; positive
c1ccc2c(c1)ccc1cccnc12,carcinogen call,"Species: RAT, Strain/Sex: SPRAGUE-DAWLEY/FEMALE, Route: SUBCUTANEOUS, Dose: 0, 200 UMOL/KG IN DMSO INTO SUPRASCAPULAR AREA ON DAY 1 OF LIFE FOLLOWED BY 0, 100 UMOL 1/WK AT WK 2-7 THEN O, 200 UMOL/, Dose: 0, 200 UMOL/KG IN DMSO INTO SUPRASCAPULAR AREA ON DAY 1 OF LIFE FOLLOWED BY 0, 100 UMOL 1/WK AT WK 2-7 THEN O, 200 UMOL/",inactive; negative
same,carcinogen call,"Species: RAT, Strain/Sex: SPRAGUE-DAWLEY/MALE, Route: SUBCUTANEOUS, Dose: 0, 200 UMOL/KG IN DMSO INTO SUPRASCAPULAR AREA ON DAY 1 OF LIFE FOLLOWED BY 0, 100 UMOL 1/WK AT WK 2-7 THEN O, 200 UMOL/, Dose: 0, 200 UMOL/KG IN DMSO INTO SUPRASCAPULAR AREA ON DAY 1 OF LIFE FOLLOWED BY 0, 100 UMOL 1/WK AT WK 2-7 THEN O, 200 UMOL/",inactive; negative
Cc1cc(C)c(S(=O)(=O)O)cc1N=Nc1cc(S(=O)(=O)O)c2ccccc2c1O,carcinogen call,"Species: MOUSE, Strain/Sex: SWISS-WEBSTER/FEMALE, Route: DERMAL, Dose: 0, 1% IN 0.1 ML DISTILLED WATER 1/WK FOR 19.5 MO (STUDY DURATION: 19.5 MO)",inactive; negative
same,carcinogen call,"Species: MOUSE, Strain/Sex: SWISS-WEBSTER/MALE, Route: DERMAL, Dose: 0, 1% IN 0.1 ML DISTILLED WATER 1/WK FOR 19.5 MO (STUDY DURATION: 19.5 MO)",inactive; negative
